Data as given in PubChem BioAssay (NCI).
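Five concentrations, 48 hours, 96-well plates. Abbreviation: GI50, concentration required for 50% inhibition of growth. TGI denotes the concentration required for complete inhibition of growth.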

Columns and labels:
Assay in all cases: NCI tumour cell line growth inhibition, 48 h
[1] = system: MCF7 breast
[2] = system: OVCAR-4 ovarian
[3] = system: 786-0 renal
[4] = system: UO-31 renal
[5] = system: KM12 colon
[6] = system: SF-295 CNS
[7] = system: RPMI-8226 leukemia
[8] = system: K-562 leukemia
[9] = system: DU-145 prostate
[10] = system: EKVX NSCLC
[11] = system: NCI-H522 lung
[12] = system: HOP-62 NSCLC
[13] = system: LOX IMVI melanoma
[14] = system: SN12C renal
[15] = system: M14 melanoma
[16] = system: U251 CNS
[17] = system: SF-268 CNS
[18] = system: HCT-15 colon
[19] = system: BT-549 breast
[20] = system: NCI-H23 lung
[21] = system: SK-MEL-28 melanoma
[22] = system: A549 NSCLC
[23] = system: HS 578T breast
[24] = system: OVCAR-3 ovarian
[25] = system: HOP-92 NSCLC
[26] = system: CCRF-CEM leukemia

**Q.** Which TGI [1] does the source give for `O=C(Cc1csc2nc(-c3ccc(Br)cc3)cn12)N/N=C/c1ccc(O)cc1` here?
**A.** > 100 µM

**Q.** What about the GI50 [2] of the same molecule?
**A.** > 100 µM

**Q.** What about the TGI [2] of the same molecule?
**A.** > 100 µM

**Q.** What about the GI50 [3] of the same molecule?
**A.** 26.1 µM

**Q.** What about the TGI [3] of the same molecule?
**A.** 89 µM

**Q.** And the GI50 [4]?
**A.** 26.3 µM

**Q.** And the TGI [4]?
**A.** > 100 µM

**Q.** What about the GI50 [5] of the same molecule?
**A.** 17.6 µM

**Q.** What about the TGI [5] of the same molecule?
**A.** 76.7 µM

**Q.** And the GI50 [6]?
**A.** 12 µM

**Q.** And the TGI [6]?
**A.** 41.7 µM

**Q.** What about the GI50 [7] of the same molecule?
**A.** 4.29 µM

**Q.** And the TGI [7]?
**A.** 40.2 µM

**Q.** And the GI50 [8]?
**A.** 1830 nM

**Q.** And the TGI [8]?
**A.** 7.02 µM

**Q.** And the GI50 [9]?
**A.** 22.4 µM

**Q.** And the TGI [9]?
**A.** 87.4 µM

**Q.** And the GI50 [10]?
**A.** 11.5 µM

**Q.** And the TGI [10]?
**A.** 65.9 µM

**Q.** And the GI50 [11]?
**A.** 10.7 µM

**Q.** And the TGI [11]?
**A.** 34.5 µM

**Q.** And the GI50 [12]?
**A.** 18.1 µM

**Q.** What about the TGI [12] of the same molecule?
**A.** 53.2 µM

**Q.** What about the GI50 [13] of the same molecule?
**A.** 11.1 µM

**Q.** And the TGI [13]?
**A.** 26.1 µM

**Q.** What about the GI50 [14] of the same molecule?
**A.** 15.4 µM

**Q.** What about the TGI [14] of the same molecule?
**A.** 44.1 µM

**Q.** And the GI50 [15]?
**A.** 10.2 µM

**Q.** What about the TGI [15] of the same molecule?
**A.** 23.7 µM

**Q.** What about the GI50 [16] of the same molecule?
**A.** 21.3 µM

**Q.** And the TGI [16]?
**A.** > 100 µM

**Q.** What about the GI50 [17] of the same molecule?
**A.** > 100 µM

**Q.** What about the TGI [17] of the same molecule?
**A.** > 100 µM

**Q.** What about the GI50 [18] of the same molecule?
**A.** 17.9 µM

**Q.** What about the TGI [18] of the same molecule?
**A.** 61.5 µM

**Q.** And the GI50 [19]?
**A.** 13.4 µM

**Q.** What about the TGI [19] of the same molecule?
**A.** 56.5 µM

**Q.** And the GI50 [20]?
**A.** 7.5 µM

**Q.** What about the TGI [20] of the same molecule?
**A.** 32.2 µM

**Q.** And the GI50 [21]?
**A.** 60 µM

**Q.** And the TGI [21]?
**A.** > 100 µM

**Q.** What about the GI50 [22] of the same molecule?
**A.** 10.6 µM

**Q.** What about the TGI [22] of the same molecule?
**A.** 33.7 µM

**Q.** What about the GI50 [23] of the same molecule?
**A.** 23.7 µM

**Q.** What about the TGI [23] of the same molecule?
**A.** 92.3 µM

**Q.** What about the GI50 [24] of the same molecule?
**A.** 24.2 µM

**Q.** What about the TGI [24] of the same molecule?
**A.** 49.4 µM

**Q.** And the GI50 [25]?
**A.** 18.9 µM

**Q.** What about the TGI [25] of the same molecule?
**A.** 68.9 µM

**Q.** What about the GI50 [26] of the same molecule?
**A.** 12.2 µM

**Q.** What about the TGI [26] of the same molecule?
**A.** 79.9 µM
